# Data taken from patent publication US20260097047A1, “Small molecule inhibitors of the ribosome biogenesis factor NVL2” (Board of Regents, The University of Texas System, priority 2023, published 2026).
# Test system: HCT116 cells
# Experiment: Cell viability assay (CellTiter-Glo, 72 hours) in HCT116 human colorectal cancer cells
# Assay type: cell-based
# Conditions: Homo sapiens, HCT-116; Table 4; HCT116, 72 hours; read-out: Activity
# In short: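 Ten-point IC50 came from an asymmetric five-parameter fit of luminescence corrected to vehicle wells. ATP content was measured by CellTiter-Glo 72 h after dosing at 37 °C. Cells were seeded at 2,000/well the day before, with 0.5% DMSO in all wells.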
row,IC50 [nM],Structure (SMILES)
1,< 500,"CC#CCN1C(=O)c2ccccc2Sc2cc(NC(=S)Nc3ccc(OC)nc3)ccc21 [1-(10-(But-2-yn-1-yl)-11-oxo-10,11-dihydrodibenzo[b,f][1,4]thiazepin-7-yl)-3-(6-methoxypyridin-3-yl)thiourea]"

# Same assay, conditions: Homo sapiens, HCT-116; Table 5; HCT116, 72 hours; read-out: Activity
row,IC50 [nM],Structure (SMILES)
1,< 500,"CC#CCN1C(=O)c2ccccc2Sc2cc(Nc3cc(C#N)ccn3)ccc21 [2-((10-(But-2-yn-1-yl)-11-oxo-10,11-dihydrodibenzo[b,f][1,4]thiazepin-7-yl)amino) isonicotinonitrile]"
2,< 500,"CC#CCN1C(=O)c2ccccc2Sc2cc(Nc3nnccc3C#N)ccc21 [3-((10-(But-2-yn-1-yl)-11-oxo-10,11-dihydrodibenzo[b,f][1,4]thiazepin-7-yl)amino)pyridazine-4-carbonitrile]"
3,< 500,"CC#CCN1C(=O)c2ccc(F)cc2Sc2cc(Nc3ncccc3OC)ccc21 [10-(But-2-yn-1-yl)-3-fluoro-7-((3-methoxypyridin-2-yl)amino)dibenzo[b,f][1,4]thiazepin-11 (10H)-one]"
4,1000 to 5000,"CC#CCN1C(=O)c2ccccc2Sc2cc(Nc3ncnc(Cl)n3)ccc21 [10-(But-2-yn-1-yl)-7-((4-chloro-1,3,5-triazin-2-yl)amino)dibenzo[b,f][1,4]thiazepin-11 (10H)-one]"
5,< 500,"CC#CCN1C(=O)c2ccccc2Cc2cc(Nc3ncccc3C)ccc21 [5-(But-2-yn-1-yl)-2-((3-methylpyridin-2-yl)amino)-5H-dibenzo[b,e]azepin-6 (11H)-one]"
6,500 to 1000,"CCC/C=C/CN1C(=O)c2ccccc2Sc2cc(Nc3ncccc3C(F)(F)F)ccc21 [(E)-10-(Hex-2-en-1-yl)-7-((3-(trifluoromethyl)pyridin-2-yl)amino)dibenzo[b,f][1,4]thiazepin-11 (10H)-one]"

# Same assay, conditions: Homo sapiens, HCT-116; Table 6; HCT116, 72 hours; read-out: Activity
row,IC50 [nM],Structure (SMILES)
1,< 500,"CC#CCN1C(=O)c2ccccc2Sc2cc(NC3CCOC3C)ccc21 (stereo not drawn) [10-(But-2-yn-1-yl)-7-((2-methyltetrahydrofuran-3-yl)amino)dibenzo[b,f][1,4]thiazepin-11 (10H)-one]"

# Same assay, conditions: Table 2; HCT116, 72 hours; read-out: Activity
row,IC50 [nM],Structure (SMILES)
1,< 500,CC#CCN1C(=O)c2ccc(Cl)cc2Sc2cc(NC(=S)N3CCC3)ccc21

# Same assay, conditions: Table 3; HCT116, 72 hours; read-out: Activity
row,IC50 [nM],Structure (SMILES)
1,< 500,CC#CCN1C(=O)c2ccccc2Sc2cc(NC(=O)Nc3cccc(OC)c3)ccc21 [Table 3: —CH2CCMe; 3-MeOPh; CH/CH]

# Same assay, conditions: Table 4; HCT116, 72 hours; read-out: Activity
row,IC50 [nM],Structure (SMILES)
1,< 500,CC#CCN1C(=O)c2ccccc2Sc2cc(NC(=S)Nc3cccc(OCF)c3)ccc21 [Table 4: —CH2CCMe; 3-FH2COPh; CH]
2,< 500,CC#CCN1C(=O)c2ccccc2Sc2cc(NC(=S)N[C@H]3C[C@H](O)C3)cnc21 [Table 4: —CH2CCMe; trans-3-OH-cBu; N]
3,< 500,CC#CCN1C(=O)c2ccccc2Sc2cc(NC(=S)Nc3ccc(OC)nc3)cnc21 [Table 4: —CH2CCMe; 6-MeO-pyridin-3-yl; N]

# Same assay, conditions: Table 5; HCT116, 72 hours; read-out: Activity
row,IC50 [nM],Structure (SMILES)
1,< 500,Cc1cnc(C)c(Nc2ccc3c(c2)Sc2ccccc2C(=O)N3CC#CCl)n1
2,< 500,Cc1ccc(F)c(Nc2ccc3c(c2)Sc2ccccc2C(=O)N3CC#CCl)n1
3,< 500,Cc1ccnnc1Nc1cnc2c(c1)Sc1ccccc1C(=O)N2CC#CCl
4,< 500,CC#CCN1C(=O)c2ccccc2Sc2cc(Nc3nc(C)ccc3F)cnc21
5,< 500,CC#CCN1C(=O)c2ccccc2Sc2cc(Nc3nc(C)cnc3C)cnc21
6,< 500,CC#CCN1C(=O)c2ccccc2Sc2cc(Nc3nc(C#N)ccc3C)cnc21

# Same assay, conditions: Table 6; HCT116, 72 hours; read-out: Activity
row,IC50 [nM],Structure (SMILES)
1,< 500,CC#CCN1C(=O)c2ccccc2Sc2cc(NCCCOC)ccc21 [Table 6: —CH2CCMe; (CH2)3OMe; CH/CH; S]
2,< 500,O=C1c2ccccc2Sc2cc(NC3CC4(COC4)C3)cnc2N1CC#CCl
3,< 500,CC#CCN1C(=O)c2ccccc2Sc2cc(NCCCOC)cnc21 [Table 6: —CH2CCMe; (CH2)3OMe; CH/N; S]

# Same assay, conditions: Table 7; cell viability assay, CellTiter-Glo, 72 hours; scaffold drawing 42 with R^2, R^3, X/Y, Z; read-out: Activity
row,IC50 [nM],Structure (SMILES)
1,< 500,COCCN1C(=O)c2ccccc2Sc2cc(NC(=O)c3ccc(OC)cc3)ccc21 [—(CH2)2OMe; 4-MeOPh; CH/CH; S]
2,1000 to 5000,COCCN1C(=O)c2ccccc2Sc2cc(NC(=O)c3cccc(C(F)(F)F)c3)ccc21 [—(CH2)2OMe; 3-CF3Ph; CH/CH; S]
3,500 to 1000,COCCN1C(=O)c2ccccc2Sc2cc(NC(=O)c3ccc4oc(=O)n(C)c4c3)ccc21
4,1000 to 5000,CNC(=O)CCCCCN1C(=O)c2ccccc2Sc2cc(NC(=O)c3ccoc3)ccc21 [—(CH2)5CONHMe; furan-3-yl; CH/CH; S]
5,1000 to 5000,COCCN1C(=O)c2ccccc2Sc2cc(NC(=O)c3ccc(CN)cc3)ccc21 [—(CH2)2OMe; 4-(NH2CH2)Ph; CH/CH; S]
6,< 500,COCCN1C(=O)c2ccccc2Sc2cc(NC(=O)c3ccc4oc(C)nc4c3)ccc21

# Same assay, conditions: Table 8; analogs of scaffold drawing 43 defined by R^2, R^3, X/Y, W; read-out: Activity (IC50 class, cell viability assay)
row,IC50 [nM],Structure (SMILES)
1,< 500,CO[C@H]1C[C@H](C(=O)Nc2cnc3c(c2)Sc2cc(Cl)ccc2C(=O)N3CC#CCl)C1 [—CH2CCCl; trans-3-MeOcBu; CCI/CH; N]
2,1000 to 5000,CC#CCN1C(=O)c2ccccc2Sc2cc(NC(=O)C3CNC(=O)C3)ccc21 (stereo not drawn) [—CH2CCMe; 2-oxo-pyrrolidin-4-yl; CH/CH; CH]
3,< 500,O=C(Nc1cnc2c(c1)Sc1ccc(F)cc1C(=O)N2CC#CC1CC1)C1CC2(CC(O)C2)C1 (stereo not drawn)
4,500 to 1000,CC#CCN1C(=O)c2ccccc2Sc2cc(NC(=O)C3CCNC3=O)ccc21 (stereo not drawn)
5,< 500,O=C1c2ccccc2Sc2cc(NC(=O)C34CC(F)(C3)C4)cnc2N1CC#CC1CC1
6,< 500,O=C(Nc1ccc2c(c1)Sc1ccc(F)cc1C(=O)N2CC#CC1CC1)C1CC2(CC(O)C2)C1 (stereo not drawn)
7,< 500,CC#CCN1C(=O)c2ccc(Cl)cc2Sc2cc(NC(=O)C=CCO)ccc21 [—CH2CCMe; CH═CHCH2OH; CCI/CH; CH]
8,< 500,C#Cc1ccc(C(=O)Nc2ccc3c(c2)Sc2ccccc2C(=O)N3CC#CC)cn1 [—CH2CCMe; 6-(HCC)pyrid-3-yl; CH/CH; CH]
9,< 500,CC#CCN1C(=O)c2ccc(F)cc2Sc2cc(NC(=O)C3CC4(CC(=NO)C4)C3)ccc21 (stereo not drawn)
10,< 500,CC#CCN1C(=O)c2ccccc2Sc2cc(NC(=O)[C@@H]3C[C@H]3COC)cnc21 (relative stereo) [—CH2CCMe; trans-2-MeOCH2-cPr; CH/CH; N]
11,< 500,C#CCN1C(=O)c2ccccc2Sc2cc(NC(=O)C3CC4(CC(=NO)C4)C3)cnc21 (stereo not drawn)
12,< 500,CC#CCN1C(=O)c2ccccc2Sc2cc(NC(=O)c3ccc(OCF)cc3)ccc21 [—CH2CCMe; 4-FH2COPh; CH/CH; CH]
13,< 500,CC#CCN1C(=O)c2ccc(Cl)cc2Sc2cc(NC(=O)C34CC(O)(C3)C4)ccc21
14,< 500,CC#CCN1C(=O)c2ccc(Cl)cc2Sc2cc(NC(=O)[C@@H]3C[C@H]3CO)ccc21 (relative stereo) [—CH2CCMe; trans-2-HOCH2-cPr; CCl/CH; CH]
15,< 500,CC#CCN1C(=O)c2ccc(Cl)cc2Sc2cc(NC(=O)C=CCO)cnc21 [—CH2CCMe; CH—═CHCH2OH; CCI/CH; N]
16,< 500,CC#CCN1C(=O)c2ccccc2Sc2cc(NC(=O)[C@H]3C[C@H](O)C3)ccc21 [—CH2CCMe; trans-3-OH-cBu; CH/CH; CH]
17,< 500,CC#CCN1C(=O)c2ccccc2Sc2cc(NC(=O)CCCO)ccc21 [—CH2CCMe; (CH2)3OH; CH/CH; CH]
18,< 500,CC#CCN1C(=O)c2ccc(C#N)cc2Sc2cc(NC(=O)C=CCOC)ccc21 [—CH2CCMe; CH—═CHCH2OMe; CCN/CH; CH]
19,< 500,CO[C@H]1C[C@@H](C(=O)Nc2cnc3c(c2)Sc2ccccc2C(=O)N3CC#CC2CC2)C1 [—CH2CC^cPr; cis-3-MeOcBu; CH/CH; N]
20,< 500,CC#CCN1C(=O)c2ccccc2Sc2cc(NC(=O)C3CC4(CC(=O)C4)C3)ccc21
21,< 500,CC#CCN1C(=O)c2ccc(Cl)cc2Sc2cc(NC(=O)[C@H]3C[C@@H]3COC)cnc21 (relative stereo) [—CH2CCMe; trans-2-MeOCH2-cPr; CCl/CH; N]
22,< 500,CON=C1CC2(C1)CC(C(=O)Nc1ccc3c(c1)Sc1ccc(F)cc1C(=O)N3CC#CC1CC1)C2 (stereo not drawn)
23,< 500,CC#CCN1C(=O)c2cc(F)ccc2Sc2cc(NC(=O)[C@@H]3C[C@H]3CO)ccc21 (relative stereo) [—CH2CCMe; trans-2-HOCH2-cPr; CH/CF; CH]
24,< 500,CON=C1CC2(C1)CC(C(=O)Nc1ccc3c(c1)Sc1ccccc1C(=O)N3CC#CCl)C2 (stereo not drawn)

# Same assay, conditions: Table 9; HCT116, 72 hours; read-out: Activity
row,IC50 [nM],Structure (SMILES)
1,< 500,CC#CCN1C(=O)c2ccccc2C(C)c2cc(NC(=O)OCCOC)ccc21 (stereo not drawn) [Table 9: —CH2CCMe; O(CH2)2OMe; CHMe]
2,< 500,CC1c2ccccc2C(=O)N(CC#CC2CC2)c2ccc(NC(=O)C3CC4(CC(=NO)C4)C3)cc21 (stereo not drawn)
3,< 500,N#CC1c2ccccc2C(=O)N(CC#CC2CC2)c2ccc(NC(=O)[C@H]3C[C@@H]3CO)cc21 (relative stereo)
4,< 500,CO[C@H]1C[C@@H](C(=O)Nc2ccc3c(c2)C(C)(O)c2ccccc2C(=O)N3CC#CCl)C1 (stereo partly drawn) [Table 9: —CH2CCCl; cis-3-MeOcBu; CMeOH]
5,< 500,CC#CCN1C(=O)c2ccccc2Cc2cc(NC(=O)[C@H]3C[C@@H](OC)C3)ccc21 [Table 9: —CH2CCMe; cis-3-MeOcBu; CH2]
6,< 500,CC#CCN1C(=O)c2ccccc2C(C)c2cc(NC(=O)C3CC4(CC(=O)C4)C3)ccc21 (stereo not drawn)
7,< 500,CC#CCN1C(=O)c2ccccc2Cc2cc(NC(=O)C3CC4(CC(=NO)C4)C3)ccc21 (stereo not drawn)
8,< 500,COCC1CC(C(=O)Nc2ccc3c(c2)C(C#N)c2ccccc2C(=O)N3CC#CC2CC2)C1 (stereo not drawn) [Table 9: —CH2CCcPr; 3-MeOCH2-cBu; CHCN]
9,< 500,CO[C@H]1C[C@@H](C(=O)Nc2ccc3c(c2)C(C#N)c2ccccc2C(=O)N3CC#CC2CC2)C1 (stereo partly drawn) [Table 9: —CH2CCºPr; cis-3-MeOcBu; CHCN]
10,< 500,CO[C@H]1C[C@H](C(=O)Nc2ccc3c(c2)C(C)(O)c2ccccc2C(=O)N3CC#CC2CC2)C1 (stereo partly drawn)

row,Structure (SMILES),IC50 [nM]
1,CC#CCN1C(=O)c2ccccc2C(C)c2cc(NC(=O)C3CCOC3)ccc21 (stereo not drawn),< 500
